Measured values from patent publication US8546343B2, “Aminoglycoside antibiotics targeting bacterial 16S ribosomal RNA” (Eidgenoessische Technische Hochschule Zurich, priority 2007, dated 2013).
≈ marks a conversion by molar mass, not a printed value.

Experiments:
[1] = tested on: M. smegmatis ΔrrnB (bacterial ribosomes); test: MIC, recombinant M. smegmatis with bacterial (wild-type) ribosomes; type: cell-based, Mycobacterium smegmatis; conditions: 72 h at 37° C.
Summary of the method: (§1)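 M. smegmatis single-rRNA-operon strain carrying the indicated 16S rRNA decoding-site alleles, introduced into the chromosomal operon and confirmed by sequencing. Colony-purified cultures were grown in LB with 0.05% Tween 80 and started at OD600 0.025. MIC was read in microtiter format against twofold drug dilutions.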

[2] = tested on: M. smegmatis ΔrrnB 1408G (16S rRNA position 1408 G, eukaryotic cytosolic ribosomes); test: MIC, recombinant M. smegmatis with mutant ribosomes 1408G; type: cell-based, Mycobacterium smegmatis; conditions: M. smegmatis ΔrrnB 1408G mutant ribosomes; 72 h at 37° C.
Summary of the method: as §1

[3] = tested on: M. smegmatis ΔrrnB 1491A (16S rRNA position 1491 A, eukaryotic cytosolic ribosomes); test: MIC, recombinant M. smegmatis with mutant ribosomes 1491A; type: cell-based, Mycobacterium smegmatis; conditions: M. smegmatis ΔrrnB 1491A mutant ribosomes; 72 h at 37° C.
Summary of the method: as §1

[4] = tested on: M. smegmatis ΔrrnB 1491C (16S rRNA position 1491 C, eukaryotic mitochondrial ribosome); test: MIC, recombinant M. smegmatis with mutant ribosomes 1491C; type: cell-based, Mycobacterium smegmatis; conditions: M. smegmatis ΔrrnB 1491C mutant ribosomes; 72 h at 37° C.
Summary of the method: as §1

[5] = tested on: AG011 Staph. aureus clinical isolate; test: Standard MIC assay, AG011; type: cell-based, Staphylococcus aureus
Protocol: (§2) Selected compounds of the present invention were tested for antibiotic susceptibility using clinical isolates of Staphylococci, Enterococci and Escherichia coli as well as strains carrying defined resistance determinants and compared to well known antibiotics of the state of the art. Drug susceptibility was determined in standard MIC assays, i.e. by determination of the minimal drug concentration required to inhibit bacterial growth in vitro.

[6] = tested on: AG013 Staph. epi. clinical isolate; test: Standard MIC assay, AG013; type: cell-based, Staphylococcus epidermidis
Protocol: as §2

[7] = tested on: AG014 Staph. epi. clinical isolate; test: Standard MIC assay, AG014; type: cell-based, Staphylococcus epidermidis
Protocol: as §2

[8] = tested on: AG016 S. aureus BM3002; test: Standard MIC assay, AG016; type: cell-based, Staphylococcus aureus
Protocol: as §2

[9] = tested on: AG015 S. aureus BM3002 (ANT4′); test: Standard MIC assay, AG015; type: cell-based, Staphylococcus aureus; conditions: S. aureus BM3002 (ANT4′)
Protocol: as §2

[10] = tested on: AG017 E. faecalis JH2-2; test: Standard MIC assay, AG017; type: cell-based, Enterococcus faecalis
Protocol: as §2

[11] = tested on: AG019 E. faecalis JH2-2 (APH2″ AAC6′); test: Standard MIC assay, AG019; type: cell-based, Enterococcus faecalis; conditions: E. faecalis JH2-2 (APH2″ AAC6′)
Protocol: as §2

[12] = tested on: AG001 E. coli clinical isolate; test: Standard MIC assay, AG001; type: cell-based, Escherichia coli
Protocol: as §2

[13] = tested on: AG002 E. coli clinical isolate; test: Standard MIC assay, AG002; type: cell-based, Escherichia coli
Protocol: as §2

[14] = tested on: AG003 E. coli clinical isolate; test: Standard MIC assay, AG003; type: cell-based, Escherichia coli
Protocol: as §2

[15] = tested on: AG004 E. coli clinical isolate; test: Standard MIC assay, AG004; type: cell-based, Escherichia coli
Protocol: as §2

[16] = tested on: AG006 E. coli BM13; test: Standard MIC assay, AG006; type: cell-based, Escherichia coli
Protocol: as §2

[17] = tested on: AG007 E. coli BM13 (AAC3); test: Standard MIC assay, AG007; type: cell-based, Escherichia coli; conditions: E. coli BM13 (AAC3)
Protocol: as §2

[18] = tested on: AG008 E. coli BM13 (ANT2″); test: Standard MIC assay, AG008; type: cell-based, Escherichia coli; conditions: E. coli BM13 (ANT2″)
Protocol: as §2

[19] = tested on: AG009 E. coli BM13 AAC(6′)-1B; test: Standard MIC assay, AG009; type: cell-based, Escherichia coli; conditions: E. coli BM13 AAC(6′)-1B
Protocol: as §2

Row | Molecule | minimal inhibitory concentrations ΔrrnB [1] | minimal inhibitory concentrations ΔrrnB 1408G [2] | minimal inhibitory concentrations ΔrrnB 1491A [3] | minimal inhibitory concentrations ΔrrnB 1491C [4] | Minimal inhibitory concentrations AG011 [5] | Minimal inhibitory concentrations AG013 [6] | Minimal inhibitory concentrations AG014 [7] | Minimal inhibitory concentrations AG016 [8] | Minimal inhibitory concentrations AG015 [9] | Minimal inhibitory concentrations AG017 [10] | Minimal inhibitory concentrations AG019 [11] | Minimal inhibitory concentrations AG001 [12] | Minimal inhibitory concentrations AG002 [13] | Minimal inhibitory concentrations AG003 [14] | Minimal inhibitory concentrations AG004 [15] | Minimal inhibitory concentrations AG006 [16] | Minimal inhibitory concentrations AG007 [17] | Minimal inhibitory concentrations AG008 [18] | Minimal inhibitory concentrations AG009 [19]
1 | NC[C@@H]1O[C@H](O[C@H]2[C@@H](O)[C@H](O[C@@H]3[C@@H](O)[C@H](N)C[C@H](N)[C@H]3O[C@H]3O[C@@H]4CO[C@@H](c5ccc(C(F)(F)F)cc5)O[C@H]4[C@H](O)[C@H]3N)O[C@@H]2CO)[C@H](N)[C@@H](O)[C@@H]1O [Compound 5.17, 4′,6′-O-p-Trifluoromethylbenzylideneparomomycin] | 2 to 4 µg/mL | >512 µg/mL | 512 µg/mL | 512 µg/mL | 4 µg/mL (≈ 5.18 µM) | 4 to 8 µg/mL | 4 µg/mL (≈ 5.18 µM) | 8 µg/mL (≈ 10.4 µM) | 32 µg/mL (≈ 41.5 µM) | 32 µg/mL (≈ 41.5 µM) | 128 µg/mL (≈ 166 µM) | 32 to 64 µg/mL | 32 to 64 µg/mL | 32 to 64 µg/mL | 32 µg/mL (≈ 41.5 µM) | 32 µg/mL (≈ 41.5 µM) | 32 µg/mL (≈ 41.5 µM) | 32 µg/mL (≈ 41.5 µM) | 64 to 128 µg/mL
2 | NC[C@H]1O[C@H](O[C@H]2[C@H](O)[C@@H](O[C@H]3O[C@H](CO)[C@@H](O)[C@H](N)[C@H]3O)[C@H](N)C[C@@H]2N)[C@H](O)[C@@H](O)[C@@H]1O [Kanamycin A, kanamycin A, reference compound] | – | – | – | – | 16 µg/mL (≈ 33 µM) | ≧256 mg/l | ≧256 mg/l | 4 to 8 µg/mL | 256 µg/mL (≈ 528 µM) | 32 to 64 µg/mL | >256 µg/mL | 16 µg/mL (≈ 33 µM) | 16 µg/mL (≈ 33 µM) | 32 µg/mL (≈ 66 µM) | 64 µg/mL (≈ 132 µM) | 8 µg/mL (≈ 16.5 µM) | 8 µg/mL (≈ 16.5 µM) | 128 µg/mL (≈ 264 µM) | >256 µg/mL
3 | Gentamicin [reference compound] | – | – | – | – | 4 µg/mL | ≧256 mg/l | ≧256 mg/l | 1 µg/mL | 4 µg/mL | 8 to 16 µg/mL | >256 µg/mL | 4 µg/mL | 2 µg/mL | ≧256 mg/l | >256 µg/mL | 4 µg/mL | 128 µg/mL | 64 µg/mL | 32 µg/mL
4 | NC[C@@H]1O[C@H](O[C@H]2[C@@H](O)[C@H](O[C@@H]3[C@@H](O)[C@H](N)C[C@H](N)[C@H]3O[C@H]3O[C@@H]4CO[C@@H](c5ccccc5)O[C@H]4[C@H](O)[C@H]3N)O[C@@H]2CO)[C@H](N)[C@@H](O)[C@@H]1O [Compound 5.1, 4′,6′-O-benzylideneparomomycin] | 4 µg/mL | 512 µg/mL | 512 µg/mL | >512 µg/mL | 8 µg/mL (≈ 11.4 µM) | 8 to 16 µg/mL | 8 µg/mL (≈ 11.4 µM) | 16 to 32 µg/mL | 32 to 64 µg/mL | 32 to 64 µg/mL | 256 µg/mL (≈ 364 µM) | 64 µg/mL (≈ 90.9 µM) | 64 µg/mL (≈ 90.9 µM) | 32 µg/mL (≈ 45.5 µM) | 32 to 64 µg/mL | 32 µg/mL (≈ 45.5 µM) | 32 µg/mL (≈ 45.5 µM) | 32 µg/mL (≈ 45.5 µM) | 128 µg/mL (≈ 182 µM)
